Experimental data published in publication PMC8880385 (Pharmaceuticals, 2022).
“Also recorded” adds a separate entry of the source.

Columns and labels:
O. ochengi adult females = assay: O. ochengi adult female viability (MTT) assay; type: cell-based; settings: Onchocerca ochengi, 168 h; Day 7, MTT; read-out: O. ochengi Adult Females Inhibition of Survival Day 7 IC50
Description: As humans are the only hosts for O. volvulus which are unavailable for screening, drug discovery relies on the surrogate filarial parasites Brugia spp. and cattle Onchocerca spp. Prioritized compounds from the Brugia worm screens were further tested with female and male adult O. ochengi as well as O. ochengi and L. loa mf.
For these assays, O. ochengi adults were extracted from the subcutaneous nodules of infected cow skins purchased from the local slaughterhouse (Douala, Littoral Region, Cameroon) and incubated in 4 mL complete culture media comprised of RPMI-1640 (Sigma-Aldrich), 5% newborn calf serum, 200 units/mL penicillin, 200 μg/mL streptomycin and 2.5 μg/mL amphotericin B (Sigma-Aldrich) in 12-well plates overnight to validate sterility prior to the assays. Four to eight O. ochengi adult masses were treated individually the following day with a serial dilution of each compound, and controls were treated with 1% DMSO. While in culture, the male worms normally egress from the nodules into the surrounding media and thus can be monitored in parallel for motility. The O. ochengi adult masses were incubated at 37 °C with 5% CO2 for the duration of the assay. Male motility within each well was visually scored every day and over 5 days after compound addition, and female viability within the nodules was assessed by MTT after 7 days as previously described. The O. ochengi adult masses containing female worms were individually placed in wells of a 48-well plate with 0.5 mL of 0.5 mg/mL MTT in PBS and incubated at 37 °C for 30 min. […] Prism 4.0 for Windows was used to calculate IC50s.

O. volvulus pre-adult L5 [1] = assay: O. volvulus pre-adult (Ov L5) motility assay; type: cell-based, Onchocerca volvulus; settings: Onchocerca volvulus, Day 36 @ 1 µM; 14 days drug then washout
Protocol: O. volvulus adult male and female worms, which can only be obtained from infected individuals, are not readily accessible for ex vivo studies. Moreover, since there is no small animal model that can maintain infections by O. volvulus, a recently developed in vitro system was used to evaluate the macrofilaricidal effects on pre-adult worms. All compounds except for 04 were tested in this O. volvulus pre-adult/L5 motility and viability assay.
(§1) Briefly, Ov L3 larvae were cultured to the pre-adult/L5 stage in vitro as described by Voronin et al., 2019 [45]. Once larvae reached the L5 stage (after at least 70 days in culture), 8–10 Ov L5 were moved to new transwell inserts in a 24-well plate containing 0.5 mL Ov L4-CMS media seeded with a 3 × 10^4/well Human Umbilical Vein Endothelial Cells (HUVEC) monolayer. Duplicate wells were treated with 1 and/or 10 µM of compound. Ov L5 were exposed to compounds for 14 days (exchanged 50% of media with fresh compound every two days) and then cultured with new media without compound, exchanging 50% of media every 2–3 days, up to day 36. Control Ov L5 were treated with 0.05% DMSO. Concentrations were chosen based on activity in the B. pahangi female motility assay. Motility was assessed visually and ranked on a 0–100% scale every 2–3 days over the course of the assay. At the end of the motility assay, Ov L5 viability was measured by 3-(4,5-dimethylthiazol-2-yl)-2,5-diphenyltetrazolium bromide (MTT) assay. Ov L5 were incubated with 0.1% MTT in PBS at 37 °C for 1 h then visually inspected for blue coloration indicating MTT reduction. Worms were considered dead if <50% of the worm was stained blue, and worms were considered alive if >50% of the worm was stained blue.

O. volvulus pre-adult L5 [2] = assay: O. volvulus pre-adult (Ov L5) motility assay; type: cell-based; settings: Onchocerca volvulus, 504 h; on Day 21; read-out: O. volvulus L5 Inhibition of Motility IC50
O. volvulus pre-adult L5 [3] = assay: Ov L5 viability by endpoint MTT assay; type: cell-based, Onchocerca volvulus; settings: 1 µM
Protocol: as §1, with “Concentrations were chosen based on activity in the B. pahangi female motility assay.” left out

Loa loa mf = assay: Loa loa microfilariae motility counter-screen; type: cell-based; settings: Loa loa, 120 h, Day 5
Protocol: To assess the effects of the compounds on O. ochengi mf, the mf were harvested from infected cow skin and cultured (10–15 mf per well) in 100 µL media in 96-well plates with a confluent feeder layer of monkey kidney epithelial cells (MK2) as previously described. […] All compounds were also counter-screened with L. loa mf collected from infected individuals with approval from the University of Buea (IRB approval # 964-19). Mf were separated from blood cells using a Percoll gradient as previously described and set up for assays (10–15 mf per well).

[4] = system: Brugia pahangi female worms; assay: Ex vivo microfilarial release and embryograms of female worms from treated gerbils; type: in vivo; settings: females from gerbils treated IP 1 mg/kg
Protocol: To test the effects of the compounds on female worm fertility, all surviving female worms were examined ex vivo to quantify the amount of mf released and profile the various stages of embryonic development within the uteri of individual female worms. After necropsy, female worms were incubated in individual wells of a 24-well plate with 2 mL Brugia culture media at 37 °C and 5% CO2. After 24 h, the number of mf released by each adult female was determined by counting the mf in a 0.5 mL sample of the media and multiplying by 4 to calculate the total number of mf. Additionally, embryogram analyses on the individual female worms was performed as described. […] The embryonic developmental stages (eggs, embryos, pre-mf and mf) were determined in two 10 μL aliquots using a compound microscope and hemocytometer. A minimum of 200 events were assessed from each female worm and at least 3 females were analyzed per animal from at least 3 animals per treatment group. The intra-uterine embryogram was expressed as the relative proportions of different stages of development: eggs, embryos, pre-mf, stretched mf and deformed embryos in the total number of events.
Worm burden, peritoneal mf counts, overnight mf sheds and qPCR data were analyzed using a Kruskal–Wallis test followed by Dunn’s multiple comparison. […] All statistical analyses were determined using Prism 8 version 8.2.0(272).

**Q.** How did the IC50 (O. ochengi adult females) turn out when `Cc1ccc2c(ccc(/C=C/c3c(C)nn(-c4ccccc4)c3C)[n+]2C)c1.[I-]` [Analog 06, 2-[(E)-2-(3,5-dimethyl-1-phenyl-1H-pyrazol-4-yl)ethenyl]-1,6-dimethylquinolin-1-ium iodide] was run?
**A.** 2990 nM

**Q.** And the inhibition at 1 µM (O. volvulus pre-adult L5 [1])?
**A.** > 90%

**Q.** What about the IC50 (O. volvulus pre-adult L5 [2]) of the same molecule?
**A.** 220 nM

**Q.** What about the “O. volvulus L5 % inhibition of viability Day 37 (MTT assay)” value (O. volvulus pre-adult L5 [3]) of the same molecule?
**A.** 88%

**Q.** What about the inhibition at 10 µM (Loa loa mf) of the same molecule?
**A.** 88%

**Q.** What about the “Deformed embryos in gonads of female worms (embryogram) vs vehicle” value [4] of the same molecule?
**A.** statistically significant increase in the number of deformed embryos

**Q.** And the “Mf released by female worms after 24 h ex vivo (overnight shed) vs vehicle” value [4]?
**A.** significantly lower numbers of mf; also recorded: significantly reduced
